Assay: Tissue distribution in JIMT-1 tumor-bearing mice
Format: in vivo
Conditions: 20 mg/kg tail vein injection
Description: 48 human breast cancer JIMT-1 tumor-bearing mice were randomly divided into 2 experimental groups, with a total of 6 mice in each experimental group at each time point. Both of the two preparations were administered to the respective experimental mice at a dose of 20 mg/kg through tail vein injection. Blood samples were collected from each group at 0.25, 1, 3 and 24 hours after administration and the mice were sacrificed immediately. Tumor, heart, liver, spleen, lung, kidney, stomach, small intestine, pancreas and ovary tissues were dissected and subjected to pretreatments such as homogenization, the drug concentration in each tissue sample was determined by protein precipitation-LC/MS/MS method, and the main pharmacokinetic parameters were calculated by using the non-compartmental model of Phoenix WinNonlin 8.0 software (Pharsight, USA).

tissue with the highest exposure: highest exposure in the liver
SMILES: CC(=O)O[C@H]1C(=O)[C@@]2(C)[C@H]([C@H](OC(=O)c3ccccc3)[C@]3(O)C[C@H](OC(=O)[C@H](O)[C@@H](NC(=O)c4ccccc4)c4ccccc4)C(C)=C1C3(C)C)[C@]1(OC(C)=O)CO[C@@H]1C[C@@H]2O [paclitaxel]
